Reference: US20060257935A1, “Hematopoietic factor production promoter” (Ajinomoto Co., Inc., priority 2005, published 2006)

Tests used:
[1] = tested on: activin (rat Inhibin betaA); experiment: Activin mRNA quantification by quantitative PCR in bone marrow cells isolated from renal failure rat; type: cell-based; settings: 2 hours after addition of arginine, 400 μM or 600 μM vs 100 μM
Excerpt: (§1) A renal failure rat (a rat from which ⅚ of kidney was removed) was produced as follows. A male Wistar rat at 8 weeks of age (Charles River Japan, Inc.) was subjected to the total extirpation of the right kidney and the ⅔ extirpation of the renal cortex of the left kidney under anesthesia with Nembutal and was sutured. After the surgery, the rat was housed under normal housing condition (CRF-1 diet, Charles River Japan, Inc.). Six weeks after the surgery the renal failure rat was killed by diethyl ether, then both femurs were excised and bone marrow cells were isolated. The isolated bone marrow cells were suspended in an IMDM medium with blood amino acid concentration containing 10% FCS. […]
(§2) The quantification of mRNA of each of the hematopoietic factors was determined by the quantitative PCR method mentioned below. Based on the sequences of activin (rat Inhibin betaA), SCF and IGF-1 registered in NCBI (GenBank accession Nos. M37482, NM021843, and NM178886, respectively in the order), oligonucleotide primers to be used for the quantitative PCR method were synthesized. […]
(§3) The quantitative PCR method was in accordance with the method described in SYBRGreen PCR kit (TOYOBO., Ltd.). […] After the quantitative PCR, the presence or absence and size of an amplified product were confirmed by agarose gel electrophoresis. […]

IGF-1 = IGF-1 mRNA quantification by quantitative PCR in bone marrow cells isolated from renal failure rat; type: cell-based; settings: 2 hours after addition of arginine, 400 μM or 600 μM vs 100 μM
Excerpt: as §1, §2, §3

normal rats = settings: repeated administration; cited from earlier work
[2] = tested on: porcine primary hepatocyte; settings: added to medium for porcine primary hepatocyte culture at a high concentration; cited from earlier work
MC3T3-E1 cells = settings: cited from earlier work
[3] = tested on: mouse bone marrow cells (CFU-E); experiment: In vitro mouse CFU-E colony assay (methylcellulose semi-solid medium); type: cell-based
Description: An in vitro mouse CFU-E colony assay was conducted in accordance with the following method. After a female BDF-1 mouse at 10 weeks of age (Charles River Japan, Inc.) was killed by the cervical dislocation method, bone marrow cells were isolated from the femur and suspended in an IMDM medium (Invitrogen) containing 10% FCS (JRH Bioscience Inc). The bone marrow cells were centrifuged at 1500 rpm for 10 minutes at 4° C. and the precipitated bone marrow cells were resuspended in an amino acid-free IMDM medium and the number of cells was measured. […] At 28 hours after the culture was carried out under the condition of 37° C. and 5% CO2, the number of CFU-E colonies was measured using an inverted microscope. […] The data is expressed as a mean value±SEM. […]

[4] = tested on: patients with renal anemia; settings: cited from earlier work
SCF = SCF mRNA quantification by quantitative PCR in bone marrow cells isolated from renal failure rat; type: cell-based; settings: 2 hours after addition of arginine, 400 μM or 600 μM vs 100 μM
Excerpt: as §1, §2, §3

[5] = Blood arginine concentration after oral administration to rats; type: in vivo, rat; settings: oral single-dose administration of arginine at 1.2 g/kg

N=C(N)NCCC[C@H](N)C(=O)O [arginine]
production of activin (relative mRNA level per total RNA) [1]: promotes the production
production of IGF-1 (relative mRNA level per total RNA) (IGF-1): promotes the production
amount of hemoglobin and red blood cells (normal rats): increased
gene expression of IGF-1 [2]: increases
gene expression of IGF-1 (MC3T3-E1 cells; MC3T3-E1 cells, arginine added at a higher concentration): increases
secretion amount of IGF-1 (MC3T3-E1 cells; MC3T3-E1 osteoblast-like cell line): increases
number of CFU-E colonies ([3]; 600 μM arginine added to isolated mouse bone marrow cells, compared with 170 μM): significantly increases
condition of anemia (number of red blood cells) [4]: improved
production of SCF (relative mRNA level per total RNA) (SCF): promotes the production
blood arginine concentration [5]: about 600 μM

O=C(O)[C@@H]1CCCN1 [proline]
gene expression of IGF-1 [2]: increases

C[C@@H](O)[C@H](N)C(=O)O [threonine]
gene expression of IGF-1 [2]: increases

N[C@@H](Cc1c[nH]c2ccccc12)C(=O)O [triptophan]
gene expression of IGF-1 [2]: increases

B1: follistatin: follistatin (FSN, anti-activin, R&D Co.), inhibitor for activin (protein, UniProt P19883 30-344, looked up)
Follistatin: GNCWLRQAKNGRCQVLYKTELSKEECCSTGRLSTSWTEEDVNDNTLFKWMIFNGGAPNCIPCKETCENVDCGPGKKCRMNKKNKPRCVCAPDCSNITWKGPVCGLDGKTYRNECALLKARCKEQPELEVQYQGRCKKTCRDVFCPGSSTCVVDQTNNAYCVTCNRICPEPASSEQYLCGNDGVTYSSACHLRKATCLLGRSIGLAYEGKCIKAKSCEDIQCTGGKKCLWDFKVGRGRCSLCDELCPDSKSDEPVCASDNATYASECAMKEAACSSGVLLEVKHSGSCNSISEDTEEEEEDEDQDYSFPISSILEW
inhibition of CFU-E-colony stimulating activity of arginine ([3]; follistatin 100 ng/ml, 600 μM arginine, 28 hours culture): inhibited
